Where two headings read alike, the source gives them in different places. Blank lines part the entries; values can stand above or below the molecule they belong to.
Key:
[1] = Phase I single-agent GDC-0077: pharmacokinetics; assay type: in vivo, human
Experimental: To evaluate single dose pharmacokinetics (PK), frequent blood sampling was performed up to 48 hours after the initial dose at Cycle 1 Day 1. Once daily dosing was initiated from Cycle 1 Day 8 and blood sampling to evaluate PK at steady state was conducted at Cycle 1 Day 15.

[2] = system: locally advanced or metastatic PIK3CA-mutant solid tumors; assay: Phase I single-agent GDC-0077: clinical activity (RECIST v1.1); assay type: in vivo, human
Experimental: Tumor assessments were performed by RECIST v1.1 at screening and every 8 weeks to assess preliminary anti-tumor activity.

[3] = system: PI3K pathway; assay: Phase I single-agent GDC-0077: pharmacodynamics; assay type: in vivo, human
Experimental: Pharmacodynamic activity was assessed pre- and on-study (after 2 weeks of daily GDC-0077 treatment) with FDG-PET scans, in tumor biopsies via immunohistochemistry (IHC), and in ctDNA samples (by FoundationACT).

[4] = Phase Ib GDC-0077 + letrozole with or without palbociclib: pharmacokinetics; assay type: in vivo, human
[5] = system: PI3K pathway; assay: Phase Ib GDC-0077 + letrozole with or without palbociclib: pharmacodynamics; assay type: in vivo, human
Experimental: Pharmacodynamic activity was assessed pre- and on-study (after 2 weeks of daily GDC-0077 treatment), in tumor biopsies via immunohistochemistry (IHC), and in ctDNA samples (by FoundationACT).

[6] = Phase I/Ib GDC-0077 + fulvestrant: pharmacokinetics and food effect; assay type: in vivo, human
Experimental: Safety (NCI-CTCAE v4), PK, and preliminary antitumor activity (clinical benefit rate [CBR]: RECIST v1.1 stable disease for ≥24 weeks, partial response [PR], or complete response) were assessed. The effect of a standard high-fat meal on the PK of G was evaluated after a single dose and at steady state. Relevant signaling and pharmacodynamic (PD) biomarkers were assessed using circulating tumor (ct) DNA samples.

[7] = Phase I/Ib inavolisib + palbociclib + fulvestrant: pharmacokinetics; parameters: species or system human; conditions: in vivo
[8] = target: Class I PI3K alpha isoform (Homo sapiens, UniProt P42336); conditions: versus PI3K alpha; cited from earlier work
[9] = system: tumor cells bearing mutant PI3K; conditions: cited from earlier work
[10] = system: MCF-7 (PIK3CA mutant E545K, ER+) breast carcinoma xenograft; assay: MCF-7 xenograft efficacy; conditions: for % TGI: G 25 mg/kg oral QD 21 days, P 50 mg/kg oral QD 21 days, F 200 mg/kg s.c. weekly 3 weeks, groups of 12 animals; for CR / PR: number of animals, groups of 12, doses as for % TGI
Experimental: Implant 0.36 mg estradiol pellets, s.c. between the scapulae, 1-3 days prior to cell implantation.
Set up CR female NCr nu/nu mice with 1×10^7 MCF7 tumor cells in 0% Matrigel sc in mammary fat pad.
Perform a pair match when tumors reach an average size of 180-220 mm^3, and begin treatment.
Caliper Measurement: biwk to end
Endpoint TGD. Animals are monitored individually. The endpoint of the experiment is a tumor volume of 2000 mm^3 or 45 days, whichever comes first. Responders can be followed longer. When the endpoint is reached, the animals are euthanized per SOP.

[11] = cited from earlier work
[12] = 19 patients with measurable disease
[13] = in combination with fulvestrant

Chain of Class I PI3K alpha isoform (P42336 whole entry, canonical isoform): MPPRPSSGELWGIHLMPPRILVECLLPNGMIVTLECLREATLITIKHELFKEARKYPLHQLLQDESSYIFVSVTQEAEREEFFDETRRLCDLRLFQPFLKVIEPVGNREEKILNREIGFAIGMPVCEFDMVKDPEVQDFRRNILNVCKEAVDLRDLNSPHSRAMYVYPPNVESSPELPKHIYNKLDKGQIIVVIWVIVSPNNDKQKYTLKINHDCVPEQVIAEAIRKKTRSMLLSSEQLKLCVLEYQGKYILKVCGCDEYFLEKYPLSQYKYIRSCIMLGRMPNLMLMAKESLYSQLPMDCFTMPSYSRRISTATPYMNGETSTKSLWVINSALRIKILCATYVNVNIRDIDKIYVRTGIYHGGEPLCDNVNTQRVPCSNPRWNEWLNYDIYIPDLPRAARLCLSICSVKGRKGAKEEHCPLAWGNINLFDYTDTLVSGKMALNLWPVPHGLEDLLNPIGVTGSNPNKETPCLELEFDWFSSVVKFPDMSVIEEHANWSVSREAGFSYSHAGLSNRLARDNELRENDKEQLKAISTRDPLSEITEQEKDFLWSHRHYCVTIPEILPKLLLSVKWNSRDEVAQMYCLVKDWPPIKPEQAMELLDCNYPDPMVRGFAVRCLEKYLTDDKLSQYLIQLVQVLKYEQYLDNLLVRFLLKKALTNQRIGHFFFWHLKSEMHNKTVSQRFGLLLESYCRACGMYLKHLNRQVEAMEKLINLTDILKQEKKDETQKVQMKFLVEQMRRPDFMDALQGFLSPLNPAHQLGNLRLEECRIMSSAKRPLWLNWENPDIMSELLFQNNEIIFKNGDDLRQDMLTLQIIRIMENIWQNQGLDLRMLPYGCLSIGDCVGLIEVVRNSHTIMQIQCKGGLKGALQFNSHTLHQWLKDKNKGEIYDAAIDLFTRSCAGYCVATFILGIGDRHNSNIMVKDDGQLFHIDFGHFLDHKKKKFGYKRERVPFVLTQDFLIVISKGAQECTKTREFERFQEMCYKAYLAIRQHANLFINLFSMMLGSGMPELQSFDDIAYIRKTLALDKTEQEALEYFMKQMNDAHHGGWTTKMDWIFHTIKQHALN
Chain of Class I PI3K alpha isoform (P27986 whole entry partner, canonical isoform): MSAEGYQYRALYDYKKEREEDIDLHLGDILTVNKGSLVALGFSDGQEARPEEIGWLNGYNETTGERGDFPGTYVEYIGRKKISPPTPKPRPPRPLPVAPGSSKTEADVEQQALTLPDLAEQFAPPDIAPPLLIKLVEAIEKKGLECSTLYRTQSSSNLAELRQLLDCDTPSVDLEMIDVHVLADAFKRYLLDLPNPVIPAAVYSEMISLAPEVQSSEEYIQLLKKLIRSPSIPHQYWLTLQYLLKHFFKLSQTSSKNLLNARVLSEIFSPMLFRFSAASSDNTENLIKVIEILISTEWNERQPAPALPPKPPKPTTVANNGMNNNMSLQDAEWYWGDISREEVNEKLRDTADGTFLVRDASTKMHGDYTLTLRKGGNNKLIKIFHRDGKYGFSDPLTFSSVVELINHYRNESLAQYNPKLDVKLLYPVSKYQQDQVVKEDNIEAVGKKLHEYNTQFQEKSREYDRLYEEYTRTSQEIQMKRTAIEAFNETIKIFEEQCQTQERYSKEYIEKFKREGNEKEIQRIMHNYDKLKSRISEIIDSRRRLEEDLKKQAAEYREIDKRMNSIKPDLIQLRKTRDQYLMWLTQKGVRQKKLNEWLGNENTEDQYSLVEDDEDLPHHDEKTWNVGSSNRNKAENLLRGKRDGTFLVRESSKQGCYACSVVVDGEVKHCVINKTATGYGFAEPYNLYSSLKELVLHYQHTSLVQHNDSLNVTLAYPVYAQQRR

Structure (SMILES): C[C@H](Nc1ccc2c(c1)OCCn1cc(N3C(=O)OC[C@H]3C(F)F)nc1-2)C(N)=O [GDC-0077, (S)-2-((2-((S)-4-(difluoromethyl)-2-oxooxazolidin-3-yl)-5,6-dihydrobenzo[f]imidazo[1,2-d][1,4]oxazepin-9-yl)amino)propanamide]
PK variability (% CV) for Cmax and AUC0-24 ([1]; after a single dose and at steady state at MTD (9 mg)): ~20% | half-life ([1]; human, plasma, oral, following a single dose, read-out: Mean half-life (t1/2) (converted)): 1090 min | Plasma exposure versus dose ([1]; single and multiple doses): increased proportionally | best overall response rate [2, 12]: 26% | confirmed overall response rate [2, 12]: 21% | clinical benefit rate ([2]; 20 patients): 45% | clinical benefit ([2]; of 20 patients): 9 patients | best overall response rate ([2]; overall, 20 patients): 25% | confirmed PR ([2]; overall, 20 patients): 4 patients | confirmed overall response rate ([2]; overall, 20 patients): 20% | partial response (PR) ([2]; overall, 20 patients): 5 patients | overall response rate ([2]; patients with tumors harboring PIK3CA mutations (conclusions)): 210% | FDG-PET scans ([3]; baseline and after 2 weeks of daily GDC-0077): metabolic responses at all dose levels evaluated | PI3K pathway activity in paired tumor biopsies by IHC for phosphoproteins ([3]; in vivo): Decreased | ctDNA PIK3CA mutant allele frequency ([3]; over time, majority of specimens): Decreased | plasma exposure of GDC-0077, single agent versus combination arms ([4]; Preliminary results): similar | drug-drug interaction with concomitant medications (palbociclib and letrozole) ([4]; in vivo): no drug-drug interaction | PI3K pathway effectors (pAKT, pS6) in paired tumor biopsies ([5]; GDC-0077 with letrozole with or without palbociclib): Robust PD downregulation | PIK3CA mutant allele frequency by ctDNA ([5]; between Cycle 1 Day 1 and Cycle 1 Day 15, majority of available samples): decreased | PK of GDC-0077 in combination with fulvestrant versus single-agent PK ([6]; in vivo): similar | GDC-0077 exposures (Cmax and AUC0-24) in fasted or fed states ([6]; standard high-fat meal, single dose and steady state): Comparable | drug-drug interactions with concomitant therapies (palbociclib and fulvestrant [and metformin]) [7]: no drug-drug interactions | pharmacokinetics of inavolisib in combination with palbociclib+fulvestrant versus single-agent inavolisib [7]: similar | colitis (9 patients treated ≥5 months): No colitis | MTD (QD, single agent): 9 mg | Dose-limiting toxicities (at 12 mg (1 Grade 4 hyperglycemia, 1 Grade 3 fatigue)): 2 patients | treatment related high-grade gastrointestinal toxicities (treatment-related diarrhea events all Grade 1-2): No treatment related high-grade gastrointestinal toxicities | fold less potent biochemical inhibition for other Class I PI3K beta, delta, and gamma isoforms [8]: > 300 fold | potency in tumor cells bearing mutant PI3K over wild type (WT) PI3K cells [9]: increased potency | % TGI [10]: 35% | CR [10]: 0 | PR [10]: 0

Structure (SMILES): C[C@]12CC[C@@H]3c4ccc(O)cc4C[C@@H](CCCCCCCCC[S+]([O-])CCCC(F)(F)C(F)(F)F)[C@H]3[C@@H]1CC[C@@H]2O (stereo partly drawn) [fulvestrant, (7α,17β)-7-{9-[(4,4,5,5,5-pentafluoropentyl)sulfinyl]nonyl}estra-1,3,5(10)-triene-3,17-diol]
% TGI [10]: 52% | CR [10]: 0 | PR [10]: 0

pharmacokinetics in combination with GDC-0077 versus single-agent PK reported in literature ([4]; in vivo): comparable
Structure (SMILES): N#Cc1ccc(C(c2ccc(C#N)cc2)n2cncn2)cc1 [letrozole, 4,4′-((1H-1,2,4-triazol-1-yl)methylene)dibenzonitrile, reference compound]

pharmacokinetics in combination with GDC-0077 versus single-agent PK reported in literature ([4]; in vivo): comparable
Structure (SMILES): CC(=O)c1c(C)c2cnc(Nc3ccc(N4CCNCC4)cn3)nc2n(C2CCCC2)c1=O [palbociclib, 6-acetyl-8-cyclopentyl-5-methyl-2-(5-(piperazin-1-yl)pyridin-2-ylamino)pyrido[2,3-d]pyrimidin-7(8H)-one]
cycle delays [11, 13]: 36% | dose holds [11, 13]: 54% | patients required ≥1 dose reduction of palbociclib [11, 13]: 34% | cycle delays ([11]; in combination with letrozole): 68% | dose holds ([11]; in combination with letrozole): 70% | patients required ≥1 dose reduction of palbociclib ([11]; in combination with letrozole): 36% | % TGI [10]: 45% | CR [10]: 0 | PR [10]: 0

Reference: patent publication US20260041695A1, “COMBINATION THERAPIES FOR TREATMENT OF BREAST CANCER” (Genentech, Inc., priority 2019, published 2026)
